Assays:
KM12C cell line tumor = experiment: Efficacy in animal model transplanted with KM12C, 30 and 50 mpk (Experimental Example 11); assay type: in vivo, BALB/c nude mice; conditions: once a day for 2 weeks
Method: (§1) 5-Week-old female BALB/c nude mice were purchased and acclimatized for 1 week. Then, human-derived colon cancer cell line KM12C (1.5×10^6 cells/mice) was diluted in PBS, and injected subcutaneously (100 μl) into the right dorsal side of the mice. Comparative Examples 1 and Example 18 were orally administered when the tumor reached a size of about 100 mm^3. The drug was administered at 30 mpk and 50 mpk once a day for 2 weeks, and tumor size and body weight were measured twice a week. […] After completion of the drug administration, the experimental animals were euthanized, and then the tumors were extracted and weighed to perform comparative analysis.

RON mutant (Δ155) = experiment: Kinase assay for RON mutant Δ155 in transfected Colo320HSR (immunoprecipitation, Western blotting); assay type: cell-based; conditions: Colo320HSR transfected with RONΔ155, 2 hours of drug treatment
Method: As a way capable of replacing RON mutant, each of the mutants (Δ160, Δ155) was transfected into Colo320HSR, a RON-negative cell line, and the cell line was subjected to treatment with Example 18 or Comparative Example 1 at respective concentrations. Then, it was checked, through immunoprecipitation and Western blotting, whether expression of active RON decreases. The detailed method is as follows. The RON-negative Colo320SHR colon cancer cell line was transfected with 12 ug of each of RONΔ160 and RON Δ155 using lipofectamine 2000 (Invitrogen, cat #11668-019). For the same transfection efficiency, after 24 hours, the transformed strains were dispensed into a 60-mm dish. 48 hours after transfection, treatment with drugs of Comparative Example 1 and Example 18 was performed, respectively, in a dose-dependent manner. After 2 hours of drug treatment, the cells were collected and washed with PBS. Then, the washed cells were lysed with RIPA Lysis Buffer (T&I, cat #BRI-9001).
Protein concentrations were quantified using the Bradford (BioRad, cat #5000205) method. […]
Electrophoresis was performed using SDS-PAGE, and then proteins were transferred to PVDF membrane. […] The developed film was analyzed with densitometry using Image-J, and then IC50 was calculated using Graphpad Prism (GraphPad Software, Inc.).

[1] = tested on: colon cancer patient tissue (active RON/RON mutant #1: Δ160); experiment: Efficacy in animal model transplanted with colon cancer patient tissue, 30 mpk; assay type: in vivo; conditions: 30 mpk for 4 weeks
Method: Example 18 and Comparative Example 1 were administered to an animal model transplanted with the same patient tissue (active RON/RON mutant #1: Δ160) cells as in the animal model transplanted with colon cancer patient tissue tumor cells at 30 mpk for 4 weeks. […] The lower pictures of FIG. 21 show tumors extracted from representative individuals of the respective groups.

[2] = tested on: KM12C cell line (active RON/RON mutant (Δ160)) tumor; experiment: Tumor growth inhibition in animal model transplanted with KM12C (Experimental Example 10); assay type: in vivo, BALB/c nude mice
Method: as §1, with “cells/mice) (cell line expressing active RON/RON mutant (Δ160))” for “cells/mice)”, “administered” for “administered at 30 mpk and 50 mpk”, “In addition, after” for “After”, “weighed.” for “weighed to perform comparative analysis.”
In addition, a portion of the extracted tumor tissue was fixed with 10% formalin, and then a paraffin block was produced therefrom. Then, changes in expression of each protein were checked through immunochemical staining. As a result, it was identified that in the group having received Example 18, expression of the active RON and p-ERK decreases, whereas expression of cleaved caspase 3 is induced (FIG. 11). Tumor tissues were collected from the vehicle group and the 5 mpk (mg/kg) treatment group, and changes in protein expression were compared through Western blotting.

[3] = tested on: KM12C cell line carrying RON mutant (Δ160); experiment: Action mechanism in KM12C, Western blotting of related proteins; assay type: cell-based, human; conditions: 1 μM, 5 μM, 48 hours
Method: KM12C cell line was seeded at 5×10^5 cells onto a 100-mm plate. Then, after 24 hours, the cells were subjected to treatment with Example 18 at respective concentrations (1 μM, 5 μM) for 48 hours. After 48 hours, the cells and cell suspensions were collected (1,500 rpm, 3 minutes), and changes in expression of related proteins were checked with Western blotting. RIPA Lysis Buffer (T&I) was added to the respective cells so as to achieve lysis. Then, BCA kit (Pierce) was used to quantify proteins. Then, the proteins were loaded onto 8% SDS-polyacrylamide, and electrophoresis was performed at 125 V.
Then, blocking was performed with 5% non-fat skim milk-TBST solution for 1 hour. Subsequently, the proteins were reacted with primary antibodies, which were diluted 1:1,000 in 5% non-fat skim milk-TBST solution, at 4° C. for 24 hours or 48 hours. Then, washing with TBST was performed three times. The resultant was reacted with anti-rabbit and anti-mouse IgG conjugated HRP secondary antibodies, which were diluted at 1:1,000, at room temperature for 2 hours. Then, washing with TBST was performed three times. Subsequently, the membrane was treated with the ECL solution (GE Healthcare), and developed by exposure to an X-ray film. Then, the bands were checked.

[4] = 5 mpk (mg/kg) treatment group vs vehicle

## CCOc1ccn(-c2ccc(F)cc2)c(=O)c1C(=O)Nc1ccc(Oc2ccnc3cc(-c4ccc(CN5CCOCC5)cn4)sc23)c(F)c1.Cl [Example 18, 4-ethoxy-N-[3-fluoro-4-({2-[5-(morpholinomethyl)pyridin-2-yl]thieno[3,2-b]pyridine-7-yl}oxy)phenyl]-1-(4-fluorophenyl)-2-oxo-1,2-dihydropyridine-3-carboxamide hydrochloride]
KM12C cell line tumor; 30 mg/kg oral
  TGI (%): 82.4%
KM12C cell line tumor; 50 mg/kg oral
  TGI (%): 84.8%
KM12C cell line tumor; 30 mpk and 50 mpk oral
  change in mouse body weight: little change in mouse body weight
  tumor growth inhibition efficacy: very high tumor growth inhibition efficacy
RON mutant (Δ155)
  inhibition of RON activity (degree of active RON): high inhibition efficacy as compared with Comparative Example 1
[1]
  tumor growth inhibition efficacy: about 73%
[2]; [4]
  active RON expression level in tumor tissue (Western blotting): decreased expression level
  cleaved caspase 3 expression level in tumor tissue (Western blotting): increased expression level
[2]; extracted tumor tissue
  expression of cleaved caspase 3 in tumor tissue (immunochemical staining): induced
  expression of the active RON and p-ERK in tumor tissue (immunochemical staining): decreases
[2]; oral, once a day for 2 weeks
  change in mouse body weight: no change in mouse body weight
  tumor growth inhibition efficacy (tumor size): tumor growth inhibition efficacy with drug administration was observed
  tumor weight compared with the vehicle group: decreased tumor weight was observed
[3]
  active RON (Western blotting): decreases
  p-ERK, p-Src, p-Akt, and p-Gab1 (Western blotting): decrease
